Experimental data published in publication PMC10013843 (Molecular psychiatry, 2022).

Assays:
HCN1 channel [1] = target: T1, HCN1 channel (Homo sapiens, UniProt O60741); conditions: cited from earlier work
T1 sequence (O60741 1-890): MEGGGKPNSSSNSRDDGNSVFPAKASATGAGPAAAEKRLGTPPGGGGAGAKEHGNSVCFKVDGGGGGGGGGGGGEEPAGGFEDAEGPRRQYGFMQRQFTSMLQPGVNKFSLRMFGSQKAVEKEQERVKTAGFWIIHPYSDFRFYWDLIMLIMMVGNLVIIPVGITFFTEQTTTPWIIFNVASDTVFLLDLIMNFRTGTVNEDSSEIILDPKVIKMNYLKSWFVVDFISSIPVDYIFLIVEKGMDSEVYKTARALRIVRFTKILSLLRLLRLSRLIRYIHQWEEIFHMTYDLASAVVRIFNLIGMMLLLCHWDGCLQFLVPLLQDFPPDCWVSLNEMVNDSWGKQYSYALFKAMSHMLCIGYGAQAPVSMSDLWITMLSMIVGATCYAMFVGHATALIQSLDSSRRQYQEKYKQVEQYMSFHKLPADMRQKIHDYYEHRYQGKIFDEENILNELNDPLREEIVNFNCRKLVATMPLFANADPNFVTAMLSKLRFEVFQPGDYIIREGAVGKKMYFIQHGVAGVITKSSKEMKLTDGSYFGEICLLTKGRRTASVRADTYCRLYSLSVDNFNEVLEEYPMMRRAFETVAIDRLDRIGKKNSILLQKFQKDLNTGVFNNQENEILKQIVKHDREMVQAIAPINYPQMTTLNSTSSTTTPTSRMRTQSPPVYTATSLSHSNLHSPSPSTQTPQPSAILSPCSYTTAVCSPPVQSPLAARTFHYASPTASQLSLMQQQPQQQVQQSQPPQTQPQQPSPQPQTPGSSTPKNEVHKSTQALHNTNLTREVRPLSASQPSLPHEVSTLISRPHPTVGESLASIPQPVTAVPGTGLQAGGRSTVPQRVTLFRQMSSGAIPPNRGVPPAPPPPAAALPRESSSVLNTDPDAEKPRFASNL

sigma-1 receptors = sigma-1 receptors (Rattus norvegicus, UniProt Q9R0C9); conditions: cited from earlier work
HCN1 channel [2] = target: T1, HCN1 channel; assay: HCN1 channel functional interaction; type: biochemical
rats [3] = conditions: cited from earlier work
MOR (OPRM1) = MOR (OPRM1) (Homo sapiens, UniProt P35372); conditions: cited from earlier work
KOR (OPRK1) = KOR (OPRK1) (Homo sapiens, UniProt P41145); conditions: cited from earlier work
mu-opioid receptors, MOR = mu-opioid receptors, MOR (Rattus norvegicus, UniProt P33535); conditions: cited from earlier work
[4] = target: kappa-opioid receptors, KOR (Rattus norvegicus, UniProt P34975); conditions: cited from earlier work
MOR and KOR = conditions: cited from earlier work
rats [5] = conditions: cited from earlier work; remark: listed apart in the source
rats [6] = assay: Heroin self-administration and substitution; type: in vivo, rat; conditions: 0.5 mg/kg/inf IV

Sequence of mu-opioid receptors, MOR (P33535 whole entry): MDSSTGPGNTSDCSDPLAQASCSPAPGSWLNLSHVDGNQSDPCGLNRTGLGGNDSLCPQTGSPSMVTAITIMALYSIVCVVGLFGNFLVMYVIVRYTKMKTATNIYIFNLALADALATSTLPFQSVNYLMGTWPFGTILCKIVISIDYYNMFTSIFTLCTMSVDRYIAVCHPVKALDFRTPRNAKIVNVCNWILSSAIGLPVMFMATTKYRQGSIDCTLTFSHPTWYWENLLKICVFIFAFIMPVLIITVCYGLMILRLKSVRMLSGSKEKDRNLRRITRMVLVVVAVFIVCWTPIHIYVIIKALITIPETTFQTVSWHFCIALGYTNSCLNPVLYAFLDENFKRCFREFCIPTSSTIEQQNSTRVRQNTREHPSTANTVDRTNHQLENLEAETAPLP
Sequence of kappa-opioid receptors, KOR (P34975 whole entry): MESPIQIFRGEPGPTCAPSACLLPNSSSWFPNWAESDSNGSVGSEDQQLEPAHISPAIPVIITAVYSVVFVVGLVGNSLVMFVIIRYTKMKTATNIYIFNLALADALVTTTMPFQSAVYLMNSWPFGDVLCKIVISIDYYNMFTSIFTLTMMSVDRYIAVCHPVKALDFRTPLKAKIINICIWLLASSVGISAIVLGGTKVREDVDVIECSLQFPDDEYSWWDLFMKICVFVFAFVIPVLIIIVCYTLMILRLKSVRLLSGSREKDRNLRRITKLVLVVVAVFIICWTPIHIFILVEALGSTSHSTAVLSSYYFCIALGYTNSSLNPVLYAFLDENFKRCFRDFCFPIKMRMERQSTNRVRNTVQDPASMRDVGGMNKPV
Sequence of sigma-1 receptors (Q9R0C9 whole entry): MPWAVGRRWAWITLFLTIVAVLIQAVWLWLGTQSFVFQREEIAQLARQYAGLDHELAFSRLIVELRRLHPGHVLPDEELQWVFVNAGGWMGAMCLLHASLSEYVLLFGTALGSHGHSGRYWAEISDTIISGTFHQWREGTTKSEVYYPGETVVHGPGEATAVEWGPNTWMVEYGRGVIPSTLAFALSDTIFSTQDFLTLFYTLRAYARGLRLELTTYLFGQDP
Sequence of MOR (OPRM1) (P35372 whole entry): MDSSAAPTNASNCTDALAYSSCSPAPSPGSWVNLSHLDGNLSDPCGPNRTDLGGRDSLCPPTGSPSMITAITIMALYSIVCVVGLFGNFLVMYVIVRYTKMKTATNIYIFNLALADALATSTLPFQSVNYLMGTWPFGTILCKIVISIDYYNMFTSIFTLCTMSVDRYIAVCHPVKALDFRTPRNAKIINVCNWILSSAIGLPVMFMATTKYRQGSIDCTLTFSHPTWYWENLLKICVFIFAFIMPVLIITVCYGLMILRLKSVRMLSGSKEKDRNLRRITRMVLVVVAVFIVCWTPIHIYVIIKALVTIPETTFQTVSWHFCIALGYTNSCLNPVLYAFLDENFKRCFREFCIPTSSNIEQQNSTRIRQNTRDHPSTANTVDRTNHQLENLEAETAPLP
Sequence of KOR (OPRK1) (P41145 whole entry): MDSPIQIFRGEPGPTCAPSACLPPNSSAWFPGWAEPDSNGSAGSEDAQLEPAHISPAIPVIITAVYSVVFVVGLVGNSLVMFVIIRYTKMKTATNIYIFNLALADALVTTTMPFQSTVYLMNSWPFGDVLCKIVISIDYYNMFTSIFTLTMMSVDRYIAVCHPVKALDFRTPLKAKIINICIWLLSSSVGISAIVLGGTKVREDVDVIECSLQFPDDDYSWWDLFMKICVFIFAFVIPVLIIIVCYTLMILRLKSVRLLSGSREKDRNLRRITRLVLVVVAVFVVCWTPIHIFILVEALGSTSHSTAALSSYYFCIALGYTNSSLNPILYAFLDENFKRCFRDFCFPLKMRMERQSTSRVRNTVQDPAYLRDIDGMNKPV

CNC1(c2ccccc2Cl)CCCCC1=O (racemic) [ketamine, (R,S)-ketamine]
effect on HCN1 channels (HCN1 channel [1]): inhibit
binding to sigma receptors (sigma-1 receptors): weak binding
interaction with the HCN1 channel (HCN1 channel [2]): neither (2R,6R)-HNK nor ketamine interacted

N[C@@]1(c2ccccc2Cl)CCC[C@@H](O)C1=O [(2S,6S;2R,6R)-HNK, (2S,6S;2R,6R)-Hydroxynorketamine]
effect on acute morphine nociception or tolerance (rats [3]): no effect

CN[C@@]1(c2ccccc2Cl)CCCCC1=O [(R)-ketamine]
MOR signaling, inhibition of cAMP accumulation (MOR (OPRM1)): partial agonists
KOR signaling, inhibition of cAMP accumulation (KOR (OPRK1)): partial agonists
binding to mu (MOR) opioid receptors (mu-opioid receptors, MOR): bind
binding to kappa (KOR) opioid receptors [4]: bind
β-arrestin signaling (MOR and KOR): do not activate

CN[C@]1(c2ccccc2Cl)CCCCC1=O [(S)-ketamine]
self-administration in rats (rats [5]): is self-administered
binding to mu (MOR) opioid receptors (mu-opioid receptors, MOR): bind
pressing on first session after heroin substitution (rats [6]): increased their pressing
self-administration on successive sessions after heroin substitution (rats [6]): escalation of self-administration
binding to kappa (KOR) opioid receptors [4]: bind
β-arrestin signaling (MOR and KOR): do not activate
